Results reported in US4093648A, “Therapeutically active benzoic acid derivatives and a process for preparing them” (Recordati S.A. Chemical and Pharmaceutical Company, priority 1975, dated 1978).

Assays:
[1] = tested on: cutaneous passive anaphylaxis; assay: cutaneous passive anaphylaxis on the rat (antianaphylactic activity vs. sodium chromoglycate standard); format: in vivo; details: for Compound activity / Standard activity: ratio to chromoglycate (standard), cutaneous passive anaphylaxis, rat
Excerpt: The compounds of formula I and their pharmacologically compatible salts show antianaphylactic activity (which is rather remarkable for some of them) that may be successfully employed to prepare pharmaceutical formulations for human use against the allergic asthma and alimentary allergies. In order to evaluate the antianaphylactic activity, we have performed some comparison tests with sodium chromoglycate that is, at the present time, the most known and the most used antiallergic agent.
(§1) The evaluation of biological data has been carried out by the most accepted test of the cutaneous passive anaphylaxis on the rat. We have followed the method described by J. Mota on Life Science 12,917 (1963) that was appropriately modified. The LD50 determination was carried out with the common method, by administering intraperitoneally the compound to rats. The chromoglycate was used as a standard. In the first column, are listed the LD50 values (mg/Kg), in the second the ratios [formula] in the last column the ratios [formula]

[2] = LD50 determination, intraperitoneal, rats; details: rat, in vivo, ip
Experimental: as §1

[3] = tested on: cutaneous passive anaphylaxis; details: qualitative statement, no data; cited from earlier work

**Q.** With `CCOc1ccc(NC(=O)c2cccc(C(=O)CC)c2O)cc1` [Example 2, 2-Hydroxy-3-propionyl (4-ethoxyphenyl)benzamide] as the compound, how does the “Compound activity / Standard activity” value [1] read?
**A.** 1.20

**Q.** What about the LD50 ([2]; intraperitoneally to rats) of the same compound?
**A.** 3000 mg/kg

**Q.** Which “Compound activity / Standard activity” value [1] does the source give for `CCC(=O)c1cccc(C(=O)Nc2ccccc2Cl)c1O` [Example 3, 2-Hydroxy-3-propionyl (o-chlorophenyl) benzamide] here?
**A.** 1.19

**Q.** And the LD50 ([2]; intraperitoneally to rats)?
**A.** 3000 mg/kg

**Q.** Which results are given for `CCC(=O)c1cccc(C(=O)Nc2cccc(Cl)c2)c1O` [Example 4, 2-Hydroxy-3-propionyl (m-chlorophenyl) benzamide]?
**A.** Compound activity / Standard activity [1]: 1.12; LD50 ([2]; intraperitoneally to rats): 2700 mg/kg

**Q.** With `CCC(=O)c1cccc(C(=O)O)c1OCCN(CC)CC` [Example 7, 2(β-diethylamino)ethoxy-3-propionylbenzoic Acid] as the compound, how does the antianaphylactic activity ([1]; qualitative statement) read?
**A.** most active product of this series

**Q.** What about the “Compound activity / Standard activity” value [1] of the same compound?
**A.** 1.22

**Q.** What about the LD50 [2] of the same compound?
**A.** 3000 mg/kg

**Q.** With `O=C(O)c1cc(=O)c2c(OCC(O)COc3cccc4oc(C(=O)O)cc(=O)c34)cccc2o1` [chromoglycate, sodium chromoglycate] as the compound, how does the “activity when administered per os (chromoglycate)” value [3] read?
**A.** inactive
